Here are results for eight molecules from US20080248511A1, “METHODS TO QUENCH LIGHT FROM OPTICAL REACTIONS” (priority 2007, published 2008).

In assay [1] the target is T1, Renilla luciferase (Renilla reniformis, UniProt P27652).
T1 sequence (P27652 1-311): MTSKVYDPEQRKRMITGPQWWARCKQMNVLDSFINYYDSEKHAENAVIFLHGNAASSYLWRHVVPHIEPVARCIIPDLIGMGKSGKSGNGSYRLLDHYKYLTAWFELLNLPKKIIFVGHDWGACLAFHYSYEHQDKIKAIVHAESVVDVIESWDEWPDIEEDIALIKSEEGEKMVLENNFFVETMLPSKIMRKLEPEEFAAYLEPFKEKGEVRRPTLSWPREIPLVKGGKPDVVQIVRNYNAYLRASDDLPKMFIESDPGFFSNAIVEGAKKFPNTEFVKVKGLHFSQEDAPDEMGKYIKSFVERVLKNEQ
The experiment in a line: Quench of Renilla luciferase luminescence in lysed CHO cells expressing Renilla luciferase (Example 7). The format is cell-based. As to conditions: for Inhibition (Initial/Addition): 10 μM #3077 and/or 0.04% #1424, 0.5% Tergitol NP-9; for Renilla luciferase luminescence after inhibitor addition: 3 minutes after lysis solution with 0.5% Tergitol NP-9 and 10 μM #3077 and/or 0.04% #1424; for Initial Renilla luciferase luminescence: CHO cells, EnduRen, before inhibitor addition. On the procedure:
Renilla luciferase was expressed under the control of the CMV promoter in Chinese Hamster Ovary (CHO) cells. The cells were grown in DMEM+10% FBS (Invitrogen). The cells (20,000) were plated in 96-well plates and cultured in the presence of the EnduRen™ Live Cell Substrate (Promega) in order to generate continuous Renilla luciferase-mediated luminescence. After 12 hours of culturing, Renilla luciferase-mediated luminescence was measured. After measurement, the cells were lysed with an equal volume of a solution containing 0.5% Tergitol NP-9 and either 10 μM compound #3077 (non-detergent inhibitor), 0.04% 4-((dodecyldimethylammonium)methyl)benzoate (#1424) (detergent inhibitor), or a combination of the two. The cells were exposed for 3 minutes and Renilla luciferase-mediated luminescence was measured.

The target in assay [2] is T1, Renilla luciferase. The experiment in a line: Versions of firefly luciferase reagent, firefly/Renilla luciferase samples (Example 10). Particulars: firefly/Renilla sample. The format is biochemical. Here is the method: (§1) Eight different versions of firefly luciferase reagent were made. The versions contained one of two luciferin substrates: luciferin or 5′ fluoroluciferin. The versions also differed in whether they contained Coenzyme A and/or DTT (a thiol). All versions of the reagent contained 250 mM HEPES pH 7.4, 16 mM MgSO4, 2 mM ATP and 2 mM luciferin or 5′fluoroluciferin. To create the various versions of the firefly luciferase reagent, 20 mM DTT, 2 mM Coenzyme A, 20 mM DTT and 2 mM Coenzyme A or neither DTT or Coenzyme A was added. In addition, sub-versions of the reagent were created which contained 0.3 mM of the indole (#3077) Renilla luciferase quencher, 0.04% (w:v) of the detergent (4-((dodecyldimethylammonium)methyl)benzoate) Renilla luciferase quencher, both quenchers or neither quencher. In all, a total of 32 versions of firefly luciferase reagent were created (Table 10).
(§2) To mimic the effect of measuring Renilla luciferase luminescence followed by the measurement of firefly luciferase luminescence in a single sample, side-by-side samples (each in triplicate) were used for each version of reagent. The first triplicate of samples comprised one of the versions of firefly luciferase reagent and a firefly luciferase solution (added 1:1) containing F12 medium (Invitrogen), 1 mg/ml BSA (ThermoFisher) and 14 ng/ml QuantiLum® luciferase (Promega). The second triplicate of samples comprised the same version of firefly luciferase reagent used in the first trio and a firefly/Renilla luciferase solution (added 1:1) containing F12 medium, 1 mg/ml BSA, 14 ng/ml QuantiLum® luciferase and 140 ng/ml Renilla luciferase. Firefly and Renilla luciferase luminescence was measured as previously described in both sets of samples at the same time. […] The firefly luciferase measurements were obtained from the samples only containing the firefly luciferase while the Renilla luciferase measurements were obtained from the samples containing both firefly and Renilla luciferases.

Assay [3] deals with T2, firefly luciferase (Photinus pyralis, UniProt P08659). The experiment in a line: Non-detergent compound screen, firefly luciferase (Example 6). The format is biochemical. Particulars: 0.5% Tergitol NP-9, 0.03% BDDABr, read-out: Retained Firefly Luciferase Value (%).
Assay [4] has as its target T2, firefly luciferase. The experiment in a line: Versions of firefly luciferase reagent, firefly luciferase only samples (Example 10). The class given is biochemical. On the procedure:
as §1, §2

Assay [5] deals with T1, Renilla luciferase. Briefly: Non-detergent compound screen, Renilla luciferase (Example 6). The format is biochemical.
For assay [6], the target named is T1, Renilla luciferase. Briefly: Detergent screen with Tergitol NP-9, Renilla luciferase (Example 3). The format is biochemical. Particulars: 0.5% Tergitol NP-9; for Retained Renilla Luminescence (%): 0.06% quencher in reagent solution; for Selectivity Value: retained firefly / retained Renilla, 0.06% quencher. Here is the method:
(§3) Unless otherwise specified, materials were obtained from Sigma-Aldrich.
(§4) The firefly luciferase and Renilla luciferase enzymes were diluted as follows. Firefly luciferase was diluted to 14 ng/ml in Delbecco's Minimal Essential (DMEM) medium (Gibco/Invitrogen) containing 0.1% Prionex®. Renilla luciferase was diluted to 10 ng/ml in DMEM medium containing 0.1% Prionex®.
(§5) The luciferase reactions were initiated by adding 50 μl of the firefly luciferase or Renilla luciferase enzyme solution to 50 μl of reagent solution. The reactions were performed as described above. The retained firefly luciferase and Renilla luciferase luminescence as well as the selectivity values for each quencher were calculated (Table 3). The values listed are based on 0.06% quencher in the reagent solution.

The target of assay [7] is T2, firefly luciferase. The experiment in a line: Detergent screen with Tergitol NP-9, firefly luciferase (Example 3). Particulars: 0.06% quencher in reagent solution; 0.5% Tergitol NP-9. The format is biochemical. Here is the method:
as §3, §4, §5

Assay [8] deals with T1, Renilla luciferase. Briefly: Quench of Renilla luciferase luminescence by competitive inhibitors in detergent-containing quenching reagent (Example 1). The class given is biochemical. On the procedure: Renilla luciferase (1×10^−9 M in Renilla Luciferase Lysis Buffer (Promega))+0.1% Prionex (PentaPharma) was added to Renilla Luciferase Assay Buffer (Promega) containing 3 μM coelenterazine-h. The initial Renilla luciferase-mediated luminescence was measured for 10 seconds using a Turner 20/20 n (Turner BioSystems). A quenching reagent containing 50 mM HEPES pH 7.4, 16 mM MgSO4, 1 mM CDTA, 0.5% Tergitol NP-9, 0.015% dodecyltrimethylammonium bromide, 10 mM thiourea, 0.05% Mazu-DF-204 (PGP), and 1.5 mM ATP (Pharmacia) was added to the reactions to reduce the Renilla luciferase-mediated luciferase luminescence. […] After the addition of the inhibitors, a second Renilla luciferase-mediated luminescence reading was taken. Unless otherwise specified, materials were obtained from Sigma-Aldrich.
The quenching agents described herein are effective in the presence of detergents used for cell lysis as well as other quenching agents.

The mark [9] stands for this setting: Luciferin, no thiol, 0.3 mM #3077 and/or 0.04% #1424.

T2 sequence (P08659 whole entry): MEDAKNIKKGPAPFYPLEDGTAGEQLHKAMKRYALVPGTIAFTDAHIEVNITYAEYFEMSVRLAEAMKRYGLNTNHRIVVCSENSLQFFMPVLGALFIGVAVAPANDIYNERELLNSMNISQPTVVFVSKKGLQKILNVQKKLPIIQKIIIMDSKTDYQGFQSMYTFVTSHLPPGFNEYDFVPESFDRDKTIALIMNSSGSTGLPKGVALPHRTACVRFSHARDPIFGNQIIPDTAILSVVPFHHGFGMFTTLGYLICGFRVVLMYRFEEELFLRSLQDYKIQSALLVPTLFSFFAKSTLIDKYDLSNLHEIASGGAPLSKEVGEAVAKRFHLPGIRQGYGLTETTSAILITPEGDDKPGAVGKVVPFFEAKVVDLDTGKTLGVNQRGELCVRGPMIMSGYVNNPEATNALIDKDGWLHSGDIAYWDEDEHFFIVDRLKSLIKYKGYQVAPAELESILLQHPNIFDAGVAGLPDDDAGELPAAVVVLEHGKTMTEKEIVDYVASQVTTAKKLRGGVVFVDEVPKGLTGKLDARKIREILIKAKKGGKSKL

`CCCC[N+](C)(C)CCc1c[nH]c2ccc(/C=C/C(=O)NCc3ccc(OC)cc3)cc12.[I-]` [Compound 3077, (E)-N-(2-(5-(3-(4-methoxybenzylamino)-3-oxoprop-1-enyl)-1H-indol-3-yl)ethyl)-N,N-dimethylbutan-1-aminium iodide]: the “Inhibition (Initial/Addition)” value in assay [1] worked out at 608. The “effectiveness at quenching Renilla luciferase-mediated luminescence relative to #1424 alone” value in assay [1] (10 μM #3077 vs 0.04% #1424) was “about 12 fold”. Moreover, the “Renilla luciferase luminescence after inhibitor addition” value in assay [1] stood at 1402. Further, in assay [1], the “Initial Renilla luciferase luminescence” value stood at 852596. The Renilla luminescence in assay [2] (5′-fluoroluciferin, CoA) is 2,360,350; in assay [2] (5′-fluoroluciferin, DTT + CoA), 2,653,610; in assay [2] (5′-fluoroluciferin, DTT), 514,808; in assay [2] (5′-fluoroluciferin, no thiol), 280,188; in assay [2] (Luciferin, CoA) it was 1,572,983; in assay [2] (Luciferin, DTT + CoA), 1,770,665. In addition, the Renilla luminescence in assay [2] (Luciferin, DTT) is on record as 260,392; in assay [2] (Luciferin, no thiol), 136,759. In addition, the remaining activity at 10 µM stood at 100% in assay [3] (inhibitor 10 μM) and 5% in assay [5] (inhibitor 10 μM, 0.5% Tergitol NP-9, 0.03% BDDABr, read-out: Retained Renilla Luciferase Value (%)). For the same molecule, the remaining activity at 100 µM in assay [3] (inhibitor 100 μM) was 98%; in assay [5] (inhibitor 100 μM, 0.5% Tergitol NP-9, 0.03% BDDABr, read-out: Retained Renilla Luciferase Value (%)), 1%. Further, the remaining activity at 1000 µM in assay [3] (inhibitor 1000 μM) turned out to be 98%; in assay [5] (inhibitor 1000 μM, 0.5% Tergitol NP-9, 0.03% BDDABr, read-out: Retained Renilla Luciferase Value (%)), 0.1%. Besides, the Firefly luminescence is given as 2,367,927 in assay [4] (5′-fluoroluciferin, CoA); 499,900 in assay [4] (5′-fluoroluciferin, DTT); 2,677,367 in assay [4] (5′-fluoroluciferin, DTT + CoA); 239,138 in assay [4] (5′-fluoroluciferin, no thiol); 1,502,143 in assay [4] (Luciferin, CoA); 252,225 in assay [4] (Luciferin, DTT). Besides, the Firefly luminescence in assay [4] (Luciferin, DTT + CoA) is given as 1,821,797; in assay [4] (setting [9]) it was 115,749. Also, the “Selectivity Value” was 20 in assay [5] (inhibitor 10 μM), 98 in assay [5] (inhibitor 100 μM) and 980 in assay [5] (inhibitor 1000 μM).

Consider `CCCCCCCCCCCC[N+](C)(C)Cc1ccc2c(c1)CCCC2.[Cl-]` [Dimethyldodecyl(5,6,7,8-tetrahydro-2-naphthylmethyl)ammonium chloride], for which, in assay [6], the “Retained Renilla Luminescence (%)” value is on record as 118.0% and the “Selectivity Value” is given as 0.9. Moreover, the “Retained Firefly Luminescence (%)” value in assay [7] was determined as 112.0%.

Take methylether coelenterazine-h: the “Reduction in Renilla luciferase luminescence after 2nd measurement” value was 15-fold in assay [8] (Quench Reagent + 10 μM inhibitor) and 30-fold in assay [8] (Quench Reagent + 100 μM inhibitor).

Turning to `CCCCCCCCCCCC[N+](C)(C)Cc1ccc(C(=O)[O-])cc1` [Compound 1424, 4-((Dodecyldimethylammonium)methyl)benzoate], the “Inhibition (Initial/Addition)” value in assay [1] was 52. Further, the “Renilla luciferase luminescence after inhibitor addition” value in assay [1] stood at 19963. The “Initial Renilla luciferase luminescence” value in assay [1] is given as 1037560. Further, the “Retained Renilla Luminescence (%)” value in assay [6] was determined as 20.0%. The “Selectivity Value” in assay [6] is 6.4. Also, the Renilla luminescence in assay [2] (5′-fluoroluciferin, CoA) was 2,891,880; in assay [2] (5′-fluoroluciferin, DTT + CoA), 2,833,435; in assay [2] (5′-fluoroluciferin, DTT) it was 1,142,573; in assay [2] (5′-fluoroluciferin, no thiol), 1,138,027; in assay [2] (Luciferin, CoA) it was 2,240,063; in assay [2] (Luciferin, DTT + CoA) it was 2,265,505. In addition, the Renilla luminescence was 699,059 in assay [2] (Luciferin, DTT) and 660,916 in assay [2] (Luciferin, no thiol). The Firefly luminescence was 2,095,790 in assay [4] (5′-fluoroluciferin, CoA); 512,625 in assay [4] (5′-fluoroluciferin, DTT); 2,376,253 in assay [4] (5′-fluoroluciferin, DTT + CoA); 268,289 in assay [4] (5′-fluoroluciferin, no thiol); 1,621,883 in assay [4] (Luciferin, CoA); 291,173 in assay [4] (Luciferin, DTT). Besides, the Firefly luminescence in assay [4] (Luciferin, DTT + CoA) is 1,881,453; in assay [4] (setting [9]), 144,239. Moreover, the “Retained Firefly Luminescence (%)” value in assay [7] worked out at 127.0%.

Turning to `CCCCCCCCCCCC[N+](C)(C)C1c2ccccc2-c2ccccc21.[Br-]` [N-dodecyl-N,N-dimethyl-9H-fluoren-9-aminium bromide], in assay [6], the “Retained Renilla Luminescence (%)” value was 1% and the “Selectivity Value” worked out at 37. Also, the “Retained Firefly Luminescence (%)” value in assay [7] came to 37%.

Regarding `C[N+](C)(Cc1ccccc1)C1CCCCC1.[Br-]` [N-benzyl-N,N-dimethylcyclohexanaminium bromide], in assay [6], the “Retained Renilla Luminescence (%)” value turned out to be 76% and the “Selectivity Value” came to 1.2. Further, the “Retained Firefly Luminescence (%)” value in assay [7] worked out at 90%.

On to `CCCCCCCCCCCC[N+](C)(C)Cc1ccccc1-c1ccccc1.[Br-]` [N-(biphenyl-2-ylmethyl)-NN-dimethyldodecyan-1-ammonium bromide], for which, in assay [6], the “Retained Renilla Luminescence (%)” value was determined as 0.8% and the “Selectivity Value” is on record as 221.3. Moreover, the “Retained Firefly Luminescence (%)” value in assay [7] is 177.0%.

As to `CCCCCC[N+](C)(C)Cc1ccccc1.[Br-]` [N-benzyl-N,N-dimethylhexan-1-aminium bromide], in assay [6], the “Retained Renilla Luminescence (%)” value is 54% and the “Selectivity Value” is 1.9. Moreover, the “Retained Firefly Luminescence (%)” value in assay [7] is 103%.
